Data reported in ChEMBL document CHEMBL1201862, “PubChem BioAssay data set” (2004).
Active and inactive are the calls of the source.

Experiments:
[1] = microbe, parasite or virus in culture; type: functional; settings: Mycobacterium tuberculosis
H9c2 = assay: cells; type: functional, cell-based; settings: Rattus norvegicus, H9c2, Myocardium;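 note: confirmatory concentration-response retest of ultra-high-throughput screening hits for modulation of myocardial damage; cell death induced by hydrogen peroxide oxidative stress; compound pretreatment for 60 min then peroxide exposure for 2 h; potency is for protecting the cells against peroxide damage rather than for killing them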
[2] = molecular target: T1, Corticotropin-releasing factor receptor 2/Corticotropin-releasing factor-binding protein (Homo sapiens, UniProt P24387+Q13324); assay: activators of CRF receptor 2 with binding protein – uHTS hits, confirmation (AID 602473); type: functional; settings: read-out: EC50_Mean
T1 sequence (Q13324 whole entry): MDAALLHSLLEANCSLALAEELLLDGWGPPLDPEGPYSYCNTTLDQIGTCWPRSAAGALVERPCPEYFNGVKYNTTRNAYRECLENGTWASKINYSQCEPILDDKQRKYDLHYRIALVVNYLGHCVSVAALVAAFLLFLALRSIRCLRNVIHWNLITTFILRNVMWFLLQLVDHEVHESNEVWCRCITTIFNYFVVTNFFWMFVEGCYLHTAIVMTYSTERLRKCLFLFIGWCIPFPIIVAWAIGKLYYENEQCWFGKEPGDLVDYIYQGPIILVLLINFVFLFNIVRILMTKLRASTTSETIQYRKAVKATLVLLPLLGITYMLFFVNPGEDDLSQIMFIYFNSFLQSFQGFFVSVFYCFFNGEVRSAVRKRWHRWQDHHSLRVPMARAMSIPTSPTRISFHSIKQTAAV
T1 sequence (P24387 whole entry): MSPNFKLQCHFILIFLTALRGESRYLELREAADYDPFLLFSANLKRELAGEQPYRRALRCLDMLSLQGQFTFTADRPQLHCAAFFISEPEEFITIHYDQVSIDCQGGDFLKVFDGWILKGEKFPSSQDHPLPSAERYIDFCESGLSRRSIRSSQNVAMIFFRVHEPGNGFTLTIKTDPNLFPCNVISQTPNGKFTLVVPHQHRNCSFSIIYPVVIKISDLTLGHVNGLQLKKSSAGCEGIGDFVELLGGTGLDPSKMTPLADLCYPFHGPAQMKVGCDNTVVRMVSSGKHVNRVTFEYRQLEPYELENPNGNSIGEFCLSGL

[3] = molecular target: T1, Corticotropin-releasing factor receptor 2/Corticotropin-releasing factor-binding protein; assay: Dose Response confirmation of uHTS hits for small molecule antagonists of the CRF-binding protein and CRF-R2 receptor complex.; type: functional; settings: read-out: IC50_Mean
[4] = molecular target: Glucose-6-phosphate 1-dehydrogenase (Homo sapiens, UniProt P11413); assay: human G6PD enzyme inhibitors, dose response, selectivity assay for P. falciparum G6PD inhibitor project, biochemical, fluorescence (AID 504792); type: functional
Cytochrome P450 3A4 = Cytochrome P450 3A4 (Homo sapiens, UniProt P08684);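 note: CYP3A4 tested as one member of a cytochrome P450 panel screen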
[5] = molecular target: FAD-linked sulfhydryl oxidase ALR (Homo sapiens, UniProt P55789); assay: inhibitors of human ALR sulfhydryl oxidase, dose response, biochemical, H2O2 detection, luminescence, cherry-pick (AID 493248)
[6] = cytotoxicity toward NIH3T3 fibroblasts, dose response, counter-screen, cell-based, ATP luminescence, mouse fibroblasts (AID 2010); type: functional;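 note: cells exposed to compound for about 90 hours before reading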
[7] = molecular target: DNA dC->dU-editing enzyme APOBEC-3G (Homo sapiens, UniProt Q9HC16); assay: Dose Response confirmation of small molecule APOBEC3G DNA Deaminase Inhibitors via a fluorescence-based single-stranded DNA deaminase assay. [Related pubchem assays (depositor defined):AID493012, AID493028]; type: functional
[8] = inhibitors of intracellular T. cruzi replication, confirmation, NIH3T3 host cells, beta-gal luminescence (AID 2044); type: functional, cell-based;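 note: intracellular parasites grown in NIH/3T3 mouse fibroblasts as host cells; luminescent beta-galactosidase reporter signal from transgenic T. cruzi replicating inside host cells; inhibitors lower the luminescence signal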
Fatty acid synthase = Fatty acid synthase (Homo sapiens, UniProt P49327); assay: FAS thioesterase domain inhibitors, dose response, biochemical, kinetic fluorescence intensity (AID 624326); type: functional;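 note: rate of fluorescence rise from hydrolysis of a fluorogenic O-methyl fluorescein ester substrate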
[9] = Luminescence Cell-Based Dose Retest to Confirm Inhibitors of Cancer Stem Cells. [Related pubchem assays (depositor defined):AID2717, AID2721]; type: functional; settings: Homo sapiens
[10] = inhibitors of SNCA 5'UTR-driven reporter translation, confirmation, H4 neuroglioma cells, luminescence (AID 1988); type: functional, cell-based
[11] = inhibitors of firefly luciferase expression or activity, dose response, H4 neuroglioma cells, luminescence (AID 1990); type: functional, cell-based
[12] = Luminescence Cell-Based Dose Response HTS to Identify Inhibitors of 5'UTR Stem-Loop Driven Prion Protein mRNA Translation in H4 Neuroglioblastoma Cells. [Related pubchem assays: 1827 (Project Summary), 1813 (Primary HTS)]; type: functional

DNA dC->dU-editing enzyme APOBEC-3G, sequence (Q9HC16 whole entry): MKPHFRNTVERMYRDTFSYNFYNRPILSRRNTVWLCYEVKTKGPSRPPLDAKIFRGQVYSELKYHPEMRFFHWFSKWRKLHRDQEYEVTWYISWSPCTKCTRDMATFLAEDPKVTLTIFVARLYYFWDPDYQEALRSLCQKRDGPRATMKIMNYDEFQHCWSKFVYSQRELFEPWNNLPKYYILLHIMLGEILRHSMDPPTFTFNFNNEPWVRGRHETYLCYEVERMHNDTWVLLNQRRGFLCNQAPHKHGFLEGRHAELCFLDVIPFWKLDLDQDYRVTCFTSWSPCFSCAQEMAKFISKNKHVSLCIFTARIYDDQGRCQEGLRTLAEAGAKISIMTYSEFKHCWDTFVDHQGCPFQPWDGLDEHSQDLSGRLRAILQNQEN
Glucose-6-phosphate 1-dehydrogenase, sequence (P11413 whole entry): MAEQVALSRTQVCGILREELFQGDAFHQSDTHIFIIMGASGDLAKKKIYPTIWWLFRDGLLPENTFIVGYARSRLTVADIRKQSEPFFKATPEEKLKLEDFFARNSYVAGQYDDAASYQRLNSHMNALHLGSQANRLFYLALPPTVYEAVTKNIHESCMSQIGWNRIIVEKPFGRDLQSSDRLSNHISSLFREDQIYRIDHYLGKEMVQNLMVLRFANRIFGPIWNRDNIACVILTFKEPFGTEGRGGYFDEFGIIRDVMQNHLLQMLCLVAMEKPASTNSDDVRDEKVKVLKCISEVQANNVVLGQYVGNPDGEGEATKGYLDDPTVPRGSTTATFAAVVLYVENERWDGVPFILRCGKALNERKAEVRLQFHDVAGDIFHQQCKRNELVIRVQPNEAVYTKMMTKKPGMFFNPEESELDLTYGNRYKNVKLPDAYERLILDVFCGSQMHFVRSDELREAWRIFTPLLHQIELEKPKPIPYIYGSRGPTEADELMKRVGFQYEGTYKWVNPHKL
Fatty acid synthase, sequence (P49327 whole entry, the tested form may be a part): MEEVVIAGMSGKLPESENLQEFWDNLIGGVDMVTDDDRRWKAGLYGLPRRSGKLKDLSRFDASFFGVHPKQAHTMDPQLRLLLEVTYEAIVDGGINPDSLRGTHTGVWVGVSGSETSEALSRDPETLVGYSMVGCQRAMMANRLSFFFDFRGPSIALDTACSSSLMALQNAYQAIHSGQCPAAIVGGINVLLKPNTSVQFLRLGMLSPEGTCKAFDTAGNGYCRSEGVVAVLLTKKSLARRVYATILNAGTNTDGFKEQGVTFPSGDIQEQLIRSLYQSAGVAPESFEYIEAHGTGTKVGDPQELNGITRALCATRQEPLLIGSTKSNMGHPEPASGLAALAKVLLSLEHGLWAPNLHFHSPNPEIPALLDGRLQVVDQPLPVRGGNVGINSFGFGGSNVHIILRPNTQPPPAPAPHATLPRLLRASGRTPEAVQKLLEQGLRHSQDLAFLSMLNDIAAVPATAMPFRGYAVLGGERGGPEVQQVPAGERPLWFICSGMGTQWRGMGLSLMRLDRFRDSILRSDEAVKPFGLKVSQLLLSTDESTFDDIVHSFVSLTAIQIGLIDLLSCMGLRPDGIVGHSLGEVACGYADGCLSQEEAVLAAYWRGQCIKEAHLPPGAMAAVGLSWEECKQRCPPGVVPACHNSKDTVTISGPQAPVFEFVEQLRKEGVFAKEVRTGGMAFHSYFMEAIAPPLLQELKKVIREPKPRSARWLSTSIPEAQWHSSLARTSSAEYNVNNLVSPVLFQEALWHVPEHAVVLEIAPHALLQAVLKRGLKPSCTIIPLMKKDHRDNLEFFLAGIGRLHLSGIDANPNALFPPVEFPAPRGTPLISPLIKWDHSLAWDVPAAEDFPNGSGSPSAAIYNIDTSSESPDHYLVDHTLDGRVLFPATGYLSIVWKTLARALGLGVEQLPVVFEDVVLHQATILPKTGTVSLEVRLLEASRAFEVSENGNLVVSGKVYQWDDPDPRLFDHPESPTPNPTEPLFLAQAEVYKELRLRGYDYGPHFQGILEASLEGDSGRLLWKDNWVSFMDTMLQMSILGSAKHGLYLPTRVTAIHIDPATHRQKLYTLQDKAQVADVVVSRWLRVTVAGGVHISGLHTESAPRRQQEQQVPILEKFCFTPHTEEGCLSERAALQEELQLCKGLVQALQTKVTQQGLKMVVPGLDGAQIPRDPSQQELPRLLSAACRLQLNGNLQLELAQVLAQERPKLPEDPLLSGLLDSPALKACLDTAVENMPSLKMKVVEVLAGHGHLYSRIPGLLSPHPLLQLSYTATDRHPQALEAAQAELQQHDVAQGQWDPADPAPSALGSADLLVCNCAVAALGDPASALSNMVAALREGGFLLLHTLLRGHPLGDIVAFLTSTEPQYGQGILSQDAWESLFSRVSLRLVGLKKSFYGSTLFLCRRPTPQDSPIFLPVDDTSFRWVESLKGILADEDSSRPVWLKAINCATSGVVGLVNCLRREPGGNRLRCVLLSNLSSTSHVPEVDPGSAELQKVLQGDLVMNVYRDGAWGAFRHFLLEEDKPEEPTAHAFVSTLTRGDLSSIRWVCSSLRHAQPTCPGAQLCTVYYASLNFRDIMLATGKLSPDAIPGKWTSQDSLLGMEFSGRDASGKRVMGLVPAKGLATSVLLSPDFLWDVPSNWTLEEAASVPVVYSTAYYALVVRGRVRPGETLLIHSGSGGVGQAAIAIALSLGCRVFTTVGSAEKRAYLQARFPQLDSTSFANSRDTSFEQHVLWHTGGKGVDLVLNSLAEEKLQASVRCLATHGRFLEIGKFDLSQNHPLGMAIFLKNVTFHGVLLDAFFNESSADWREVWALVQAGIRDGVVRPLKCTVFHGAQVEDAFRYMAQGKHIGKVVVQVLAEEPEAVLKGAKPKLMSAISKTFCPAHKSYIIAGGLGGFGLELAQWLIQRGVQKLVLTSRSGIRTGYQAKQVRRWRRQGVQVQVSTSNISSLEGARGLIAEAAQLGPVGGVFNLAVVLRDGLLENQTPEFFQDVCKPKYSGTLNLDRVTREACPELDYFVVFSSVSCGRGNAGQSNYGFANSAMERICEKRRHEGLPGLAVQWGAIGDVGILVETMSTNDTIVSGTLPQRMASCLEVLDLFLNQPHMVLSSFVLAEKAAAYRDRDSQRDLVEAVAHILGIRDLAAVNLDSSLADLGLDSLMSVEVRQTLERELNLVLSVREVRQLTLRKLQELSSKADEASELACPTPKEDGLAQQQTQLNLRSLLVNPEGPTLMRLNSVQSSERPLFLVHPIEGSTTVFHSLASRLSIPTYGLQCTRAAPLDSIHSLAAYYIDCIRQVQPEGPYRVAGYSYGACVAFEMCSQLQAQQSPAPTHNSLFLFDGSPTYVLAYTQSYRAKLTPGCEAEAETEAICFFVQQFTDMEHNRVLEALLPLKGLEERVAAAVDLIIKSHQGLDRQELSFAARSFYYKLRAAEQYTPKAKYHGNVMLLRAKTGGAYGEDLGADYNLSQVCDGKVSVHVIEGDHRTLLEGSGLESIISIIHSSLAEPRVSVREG
FAD-linked sulfhydryl oxidase ALR, sequence (P55789 whole entry): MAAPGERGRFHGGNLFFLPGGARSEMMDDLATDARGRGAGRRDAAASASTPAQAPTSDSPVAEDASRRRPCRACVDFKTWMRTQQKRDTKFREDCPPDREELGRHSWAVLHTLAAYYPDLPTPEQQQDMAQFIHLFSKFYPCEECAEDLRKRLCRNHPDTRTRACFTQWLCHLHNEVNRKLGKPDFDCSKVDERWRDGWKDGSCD
Cytochrome P450 3A4, sequence (P08684 whole entry): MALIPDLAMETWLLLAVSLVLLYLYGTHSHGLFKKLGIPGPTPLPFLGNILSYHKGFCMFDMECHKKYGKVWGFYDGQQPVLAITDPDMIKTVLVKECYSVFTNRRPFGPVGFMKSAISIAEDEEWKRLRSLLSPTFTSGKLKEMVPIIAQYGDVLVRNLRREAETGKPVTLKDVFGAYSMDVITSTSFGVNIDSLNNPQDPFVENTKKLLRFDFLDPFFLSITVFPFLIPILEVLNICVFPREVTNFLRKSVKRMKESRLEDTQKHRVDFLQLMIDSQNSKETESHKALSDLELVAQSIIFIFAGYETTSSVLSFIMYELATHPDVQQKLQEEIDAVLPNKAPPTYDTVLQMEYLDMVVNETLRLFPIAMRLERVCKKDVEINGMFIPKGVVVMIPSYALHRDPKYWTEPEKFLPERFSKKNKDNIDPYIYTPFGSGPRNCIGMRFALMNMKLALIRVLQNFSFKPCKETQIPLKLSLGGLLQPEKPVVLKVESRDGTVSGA

Compound: CCNc1nc(Nc2ccc(C)c(Cl)c2)c2cnn(C)c2n1
- CC50 [1]: > 40 µM (active)

Compound: COc1cc(NC(=O)c2cc([N+](=O)[O-])ccc2NC(=O)CN2CCN(c3ccccn3)CC2)cc(OC)c1
- IC50 (H9c2): 10.8 µM (active)

Compound: COc1ccc(NC(=S)N2CCC(N(C)CCN3CCOCC3)CC2)cc1Cl
- EC50 [2]: > 53 µM (inactive)
- IC50 [3]: > 47.1 µM (inactive)

Compound: Cc1ccc(S(=O)(=O)NNc2ccccc2)cc1
- IC50 [4]: > 80 µM (inactive)
- AC50 (Cytochrome P450 3A4): 28.2 µM (inconclusive)
- AC50 [5]: 0.623 µM (active)

Compound: CCOC(=O)c1c(NC(=O)COC(=O)c2ccc(O)cc2)sc(C(=O)N(C)C)c1C
- IC50 (H9c2): > 79 µM (inactive)

Compound: CCCNC(=O)Cn1sc2nc(C)cc(C)c2c1=O
- EC50 [6]: 9.56 µM (active)
- IC50 [4]: 45.5 µM (inactive)
- IC50 [7]: 5.41 µM (active)
- EC50 [8]: 3.08 µM (active)

Compound: COc1ccc(/C=C(\NC(=O)c2ccc([N+](=O)[O-])cc2)C(=O)NCCN2CCOCC2)cc1
- IC50 (Fatty acid synthase): 5.27 µM (active)

Compound: Cc1noc(NS(=O)(=O)c2ccc(N/C=C\C(=O)c3cccc4ccccc34)cc2)c1C
- EC50 [2]: > 53 µM (inactive)
- IC50 [3]: > 47.1 µM (inactive)

Compound: COc1cc(OC)c2ccc(=O)oc2c1C(CCN1CCOCC1)c1ccc2c(c1)OCO2 (stereo unspecified)
- EC50 [2]: > 53 µM (inactive)
- IC50 [3]: > 47.1 µM (inactive)

Compound: CNc1nnc(S)s1
- IC50 [7]: 17.6 µM (active)

Compound: COc1ccc2sc(-c3ccc(SC)cc3)c(C#CC(C)(C)O)c2c1
- AC50 [9]: 2.26 µM (active)

Compound: Cn1c(=O)c2c(nc(NCCCO)n2C/C=C/c2ccccc2)n(C)c1=O
- IC50 (H9c2): > 79 µM (inactive)

Compound: COc1cc(/C=C(\C#N)c2nc3cc(C)ccc3[nH]2)c([N+](=O)[O-])cc1OC
- IC50 (H9c2): > 79 µM (inactive)

Compound: Cc1cccc(CN2C(=O)/C(=C\c3ccc(C(=O)NCCCN4CCN(C)CC4)cc3)Oc3ccccc32)c1
- EC50 [10]: > 120 µM (not active)
- EC50 [11]: 10.6 µM (active)
- EC50 [12]: > 120 µM (not active)
- AC50 [9]: 3.6 µM (active)

Compound: C=CCn1c(-c2cc(OC)cc(OC)c2)n[nH]c1=S
- IC50 [7]: 8.23 µM (active)

Compound: COc1ccc2cc3cc(C(=O)N4CC(C)CC(C)C4)oc3nc2c1 (stereo unspecified)
- IC50 (Fatty acid synthase): 3.88 µM (active)

Compound: CSc1nc2ncc3c(n2n1)CC1c2ccccc2CCN1C3=O (stereo unspecified)
- IC50 (H9c2): 15.1 µM (active)

Compound: CCC(CC)c1nnc(NC(=O)COc2ccc3c(c2)OCO3)s1
- IC50 [7]: 53.2 µM (active)

Compound: O=C(c1ccccc1)c1nn(-c2ccc(Cl)cc2)cc1C(=O)c1cc2ccccc2oc1=O
- EC50 [2]: > 53 µM (inactive)
- IC50 [3]: > 47.1 µM (inactive)
